# Data reported in US8202902B2, “Bivalent SMAC mimetics and the uses thereof” (The Regents of the University of Michigan, priority 2006, dated 2012).
# Experiments:
# [1] = test system: MDA-MB-231 human breast cancer cell line; assay: Cell growth inhibition, WST-8 assay, MDA-MB-231; assay type: cell-based; conditions: MDA-MB-231, read-out: IC50 values (nM) In WST-assay (MDA-MB-231)
# Method: (§1) The rate of cell growth inhibition after treatment with different concentrations of the compound was determined using a WST-8 kit (2-(2-methoxy-4-nitrophenyl)-3-(4-nitrophenyl)-5-(2, 4 disulfophenyl)-2H-tetrazolium monosodium salt; Dojindo Molecular Technologies, Inc., Gaithersburg, Md.). WST-8 was added at a final concentration of 10% to each well, and then the plates were incubated at 37° C. for 2-3 hrs. The absorbance of the samples was measured at 450 nm using a ULTRA Tecan Reader (Molecular Device).
# SK-OV-3 = assay: Cell growth inhibition, WST assay, SK-OV-3; assay type: cell-based; conditions: Homo sapiens
# Method: as §1, with “Cells were seeded in 96-well flat bottom cell culture plates at a density of 3000 cells/well with a tested compound and incubated at 37° C. in an atmosphere of 95% air and 5% CO2 for 4 days. The rate” for “The rate”
# [2] = molecular target: T1, human XIAP protein (residues 120-356) (Homo sapiens, UniProt P98170); assay: Fluorescence-polarization-based binding assay to XIAP protein (Smac2-F tracer); conditions: read-out: Binding to XIAP IC50 values
# T1 construct: human XIAP protein (residues 120-356) (10 nM)
# Method: The polarization values were measured after 2 hours incubation, using the Ultra plate reader. […] Curve fitting is performed using GraphPad Prism® software.
# T1 sequence (P98170 120-356): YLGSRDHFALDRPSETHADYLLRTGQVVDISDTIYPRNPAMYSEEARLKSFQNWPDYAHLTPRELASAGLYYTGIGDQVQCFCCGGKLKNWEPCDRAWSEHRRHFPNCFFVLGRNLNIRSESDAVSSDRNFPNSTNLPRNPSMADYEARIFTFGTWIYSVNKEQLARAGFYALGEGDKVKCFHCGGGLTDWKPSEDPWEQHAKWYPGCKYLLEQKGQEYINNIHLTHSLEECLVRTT
SMILES,IC50 [1] [nM],IC50 (SK-OV-3) [nM],IC50 [2] [nM]
CN[C@@H](C)C(=O)N[C@H]1CN(C(=O)CCCCCCCCC(=O)N2CC[C@H]3CCC(C(=O)NC(c4ccccc4)c4ccccc4)N3C(=O)[C@@H](NC(=O)[C@H](C)NC)C2)CC[C@H]2CCC(C(=O)NC(c3ccccc3)c3ccccc3)N2C1=O (stereo partly shown) [YP-381],< 10,< 10,
CN[C@@H](C)C(=O)N[C@H]1CCCC[C@H]2CC[C@@H](C(=O)N[C@@H](c3ccc(F)cc3)c3cn(CCCCc4ccc(CCCCn5cc([C@@H](NC(=O)[C@@H]6CC[C@@H]7CCCC[C@H](NC(=O)[C@H](C)NC)C(=O)N76)c6ccc(F)cc6)nn5)cc4)nn3)N2C1=O [SH-182],< 10,< 10,< 100
CN[C@@H](C)C(=O)N[C@H]1CN(C(=O)CCCCCCCCCCC(=O)N2CC[C@H]3CC[C@@H](C(=O)NC(c4ccccc4)c4ccccc4)N3C(=O)[C@@H](NC(=O)[C@H](C)NC)C2)CC[C@H]2CC[C@@H](C(=O)NC(c3ccccc3)c3ccccc3)N2C1=O [YP-383],< 10,< 10,
CN[C@@H](C)C(=O)N[C@H]1CCCC[C@H]2CC[C@@H](C(=O)N[C@H](c3ccccc3)c3cn(CCCCc4ccc(CCCCn5cc([C@H](NC(=O)[C@@H]6CC[C@@H]7CCCC[C@H](NC(=O)[C@H](C)NC)C(=O)N76)c6ccccc6)nn5)cc4)nn3)N2C1=O [SH-206],< 1000,< 1000,
CN[C@@H](C)C(=O)N[C@H]1CN(Cc2ccc(CN3CC[C@H]4CC[C@@H](C(=O)NC(c5ccccc5)c5ccccc5)N4C(=O)[C@@H](NC(=O)[C@H](C)NC)C3)cc2)CC[C@H]2CC[C@@H](C(=O)NC(c3ccccc3)c3ccccc3)N2C1=O [YP-317],< 100,,< 100
CN[C@@H](C)C(=O)N[C@H]1CCCC[C@H]2CC[C@@H](C(=O)N[C@@H](c3ccccc3)c3ccc(CCCNC(=O)NCCCc4ccc([C@@H](NC(=O)[C@@H]5CC[C@@H]6CCCC[C@H](NC(=O)[C@@H](C)NC)C(=O)N65)c5ccccc5)cc4)cc3)N2C1=O [SH-188],< 100,< 100,< 100
CN[C@@H](C)C(=O)N[C@H]1CC[C@@H](n2cc(COCc3cn([C@@H]4CC[C@H](NC(=O)[C@H](C)NC)C(=O)N5[C@H](CC[C@H]5C(=O)N[C@H]5CCCc6ccccc65)C4)nn3)nn2)C[C@H]2CC[C@@H](C(=O)NC3CCCc4ccccc43)N2C1=O (stereo partly shown) [SH-153],< 1000,,< 10
CNC(Cc1c[nH]c2ccccc12)C(=O)NC1CCCCC2CCC(C(=O)NC(c3ccccc3)c3cn(CCCCc4ccc(CCCCn5cc(C(NC(=O)C6CCC7CCCCC(NC(=O)C(Cc8c[nH]c9ccccc89)NC)C(=O)N76)c6ccccc6)nn5)cc4)nn3)N2C1=O (stereo not shown) [SH-187],,,> 10000
CN[C@@H](C)C(=O)N[C@H]1CC[C@H](n2cc(COCc3cn([C@H]4CC[C@H](NC(=O)[C@H](C)NC)C(=O)N5[C@H](CC[C@H]5C(=O)NC(c5ccccc5)c5ccccc5)C4)nn3)nn2)C[C@H]2CC[C@@H](C(=O)NC(c3ccccc3)c3ccccc3)N2C1=O [SH-176],< 100,,< 10
CN[C@@H](C)C(=O)N[C@H]1CN(C(=O)CCCCCCC(=O)N2CC[C@H]3CCC(C(=O)NC(c4ccccc4)c4ccccc4)N3C(=O)[C@@H](NC(=O)[C@H](C)NC)C2)CC[C@H]2CCC(C(=O)NC(c3ccccc3)c3ccccc3)N2C1=O (stereo partly shown) [YP-385],< 10,< 10,
C[C@H](NCCO)C(=O)N[C@H]1CCCC[C@H]2CC[C@@H](C(=O)N[C@@H](c3ccc(F)cc3)c3cn(CCN4CCN(CCn5cc([C@@H](NC(=O)[C@@H]6CC[C@@H]7CCCC[C@H](NC(=O)[C@H](C)NCCO)C(=O)N76)c6ccc(F)cc6)nn5)CC4)nn3)N2C1=O [SH-183],< 10000,,< 100
CN[C@@H](C)C(=O)N[C@H]1CC[C@H](n2cc(COCc3cn([C@H]4CC[C@H](NC(=O)[C@H](C)NC)C(=O)N5[C@H](CC[C@H]5C(=O)N[C@@H]5CCCc6ccccc65)C4)nn3)nn2)C[C@H]2CC[C@@H](C(=O)N[C@@H]3CCCc4ccccc43)N2C1=O (stereo in doubt) [SH-172],< 1000,,< 10
CN[C@@H](C)C(=O)N[C@H]1CCCC[C@H]2CC[C@@H](C(=O)N[C@@H](c3ccccc3)c3cn(CCCCCCCCn4cc([C@@H](NC(=O)[C@@H]5CC[C@@H]6CCCC[C@H](NC(=O)[C@H](C)NC)C(=O)N65)c5ccccc5)nn4)nn3)N2C1=O [SH-167],< 10,< 10,

# Second part, the molecule after the results:
IC50 [1] [nM],IC50 (SK-OV-3) [nM],IC50 [2] [nM],SMILES
< 1000,< 1000,< 10,CN[C@@H](C)C(=O)N[C@H]1CCCC[C@H]2CC[C@@H](C(=O)N[C@@H](c3ccccc3)c3cn(CCOCCn4cc([C@@H](NC(=O)[C@@H]5CC[C@@H]6CCCC[C@H](NC(=O)[C@H](C)NC)C(=O)N65)c5ccccc5)nn4)nn3)N2C1=O [SH-159]
< 100,< 100,< 100,CN[C@@H](C)C(=O)N[C@H]1CCCC[C@H]2CC[C@@H](C(=O)N[C@@H](c3ccccc3)c3ccc(CCCNC(=S)NCCCc4ccc([C@@H](NC(=O)[C@@H]5CC[C@@H]6CCCC[C@H](NC(=O)[C@@H](C)NC)C(=O)N65)c5ccccc5)cc4)cc3)N2C1=O [SH-189]
< 10,< 10,< 100,CN[C@@H](C)C(=O)N[C@H]1CCCC[C@H]2CCC(C(=O)N[C@H](COCCCCCCCCCCCCOC[C@@H](NC(=O)[C@@H]3CC[C@@H]4CCCC[C@H](NC(=O)[C@H](C)NC)C(=O)N43)c3ccccc3)c3ccccc3)N2C1=O (stereo partly shown) [SH-202]
< 10000,,< 100,CN[C@@H](C)C(=O)N[C@H]1CCCC[C@H]2CC[C@@H](C(=O)N[C@@H](c3ccccc3)c3cn(CCN4CCN(CCn5cc([C@@H](NC(=O)[C@@H]6CC[C@@H]7CCCC[C@H](NC(=O)[C@H](C)NC)C(=O)N76)c6ccccc6)nn5)CC4)nn3)N2C1=O [SH-178]
< 10,< 10,< 100,CN[C@@H](C)C(=O)N[C@H]1CCCC[C@H]2CC[C@@H](C(=O)N[C@@H](c3ccccc3)c3cn(CCCCCOCCCCn4cc([C@@H](NC(=O)[C@@H]5CC[C@@H]6CCCC[C@H](NC(=O)[C@H](C)NC)C(=O)N65)c5ccccc5)nn4)nn3)N2C1=O [SH-198]
< 100,< 100,< 10,CN[C@@H](C)C(=O)N[C@H]1CCCC[C@H]2CC[C@@H](C(=O)N[C@@H](c3ccccc3)c3ccc(CCCn4cc(COCc5cn(CCCc6ccc([C@@H](NC(=O)[C@@H]7CC[C@@H]8CCCC[C@H](NC(=O)[C@H](C)NC)C(=O)N87)c7ccccc7)cc6)nn5)nn4)cc3)N2C1=O [SH-155]
< 1000,< 1000,< 10,CN[C@@H](C)C(=O)N[C@H]1CCCC[C@H]2CC[C@@H](C(=O)N[C@@H](c3ccccc3)c3cn(CCCCn4cc([C@@H](NC(=O)[C@@H]5CC[C@@H]6CCCC[C@H](NC(=O)[C@H](C)NC)C(=O)N65)c5ccccc5)nn4)nn3)N2C1=O [SH-166]
< 10,< 100,< 100,C[C@H](NCCO)C(=O)N[C@H]1CCCC[C@H]2CC[C@@H](C(=O)N[C@@H](c3ccc(F)cc3)c3cn(CCCCc4ccc(CCCCn5cc([C@@H](NC(=O)[C@@H]6CC[C@@H]7CCCC[C@H](NC(=O)[C@H](C)NCCO)C(=O)N76)c6ccc(F)cc6)nn5)cc4)nn3)N2C1=O [SH-184]
< 10000,,< 100,C[C@H](NCCO)C(=O)N[C@H]1CCCC[C@H]2CC[C@@H](C(=O)N[C@@H](c3ccccc3)c3cn(CCN4CCN(CCn5cc([C@@H](NC(=O)[C@@H]6CC[C@@H]7CCCC[C@H](NC(=O)[C@H](C)NCCO)C(=O)N76)c6ccccc6)nn5)CC4)nn3)N2C1=O [SH-179]
< 100,,< 10,CN[C@@H](C)C(=O)N[C@H]1CC[C@@H](n2cc(COCc3cn([C@@H]4CC[C@H](NC(=O)[C@H](C)NC)C(=O)N5[C@H](CC[C@H]5C(=O)NC(c5ccccc5)c5ccccc5)C4)nn3)nn2)C[C@H]2CC[C@@H](C(=O)NC(c3ccccc3)c3ccccc3)N2C1=O [SH-177]
,,< 50,CN[C@@H](C)C(=O)N[C@H]1CCCC[C@H]2CC[C@@H](C(=O)N[C@H](COCCn3cc(COC[C@@H](NC(=O)[C@@H]4CC[C@@H]5CCCC[C@H](NC(=O)[C@H](C)NC)C(=O)N54)c4ccccc4)nn3)c3ccccc3)N2C1=O [SH-143]
< 1000,< 1000,< 10,CN[C@@H](C)C(=O)N[C@H]1CCCC[C@H]2CC[C@@H](C(=O)N[C@@H](c3ccccc3)c3cn(CCOCCOCCn4cc([C@@H](NC(=O)[C@@H]5CC[C@@H]6CCCC[C@H](NC(=O)[C@H](C)NC)C(=O)N65)c5ccccc5)nn4)nn3)N2C1=O [SH-158]
,,< 50,CN[C@@H](C)C(=O)N[C@H]1CCCC[C@H]2CC[C@@H](C(=O)N[C@H](COCc3cn([C@@H]4CC[C@H](NC(=O)[C@H](C)NC)C(=O)N5[C@H](CC[C@H]5C(=O)N[C@@H]5CCCc6ccccc65)C4)nn3)c3ccccc3)N2C1=O [SH-146]
< 10000,,< 100,CN[C@@H](C)C(=O)N[C@H]1CCCC[C@H]2CC[C@@H](C(=O)N[C@@H](c3ccc(F)cc3)c3cn(CCN4CCN(CCn5cc([C@@H](NC(=O)[C@@H]6CC[C@@H]7CCCC[C@H](NC(=O)[C@H](C)NC)C(=O)N76)c6ccc(F)cc6)nn5)CC4)nn3)N2C1=O [SH-181]
